Source: patent publication US8642532B2, “Excipients for protein stabilization” (priority 2007, dated 2014)

Experiments:
[1] = biological target: T1, BSA (Bos taurus, UniProt P02769); test: Reduction of aggregation of BSA induced by t-butanol, SEC HPLC; format: physicochemical, Bovine; conditions: BSA precipitated with t-butanol, re-dissolved in PBS
T1 construct: BSA stock solution (35%, in water, 0.85% sodium chloride, from Sigma); purchased Sigma / Sigma Aldrich
Protocol: To three separate test tubes containing 0.050 ml of BSA (35%, 0.85% sodium chloride) and 0.050 ml of phosphate buffer (50 mM, pH 7.4), were respectively added 0.010 ml of water, 0.010 mll of 2-formylbenzenesulfonic acid sodium salt (75 mg/ml, pH 8), and 0.010 ml of pyridoxal phosphate (100 mg/ml, pH 7.4). To each of the three tubes were then added 0.50 ml of PEG solution (75%, molecular weight 3400) followed by centrifugation to give some precipitate. The three supernatants were collected to have BSA at saturated concentrations, and to them were separately added 0.50 ml of t-butanol to have more BSA precipitates after centrifugation. The crops of precipitates from t-butanol were washed with t-butanol twice (0.75 ml each) and re-dissolved in PBS buffer (50 mM sodium phosphate, pH 7.4, 0.85% sodium chloride) for SEC HPLC analysis. Plain BSA produced about 75% of aggregates, the sample with 2-formylbenzenesulfonic acid produced about 60% of aggregates, the sample with pyridoxal phosphate produced less than 50% of aggregates.

[2] = biological target: T1, BSA; test: Reduction of aggregation of BSA induced by methanol, SEC HPLC; format: physicochemical, Bovine; conditions: precipitated with PEG 3400 and methanol, re-dissolved in PBS
Protocol: BSA stock solution (0.050 ml, 35%, 0.85% sodium chloride, Sigma) was diluted with 0.050 ml of sodium phosphate buffer (50 mM, pH 7.4, no sodium chloride) and 0.050 ml of water (HPLC grade). A separate sample was prepared in the same way, but replacing the 0.050 ml of water using 0.050 ml of an excipient solution containing pyridoxal phosphate (represented as X2 in FIG. 1, 100 mg/ml in water, pH 7.4). To each of the two samples in test tubes were added 0.350 ml of an aqueous solution of polyethylene glycol (molecular weight 3400, 75%) to turn the mixtures cloudy, followed by addition of 0.50 ml of methanol (HPLC grade). Then the samples were centrifuged to collect the precipitates. The precipitates were re-dissolved in PBS buffer and analyzed on Size Exclusion Chromatography HPLC. Without excipient, about two thirds of BSA was found in the form of aggregates, while only a quarter of BSA appeared as aggregate in the samples using excipient pyridoxal phosphate.

[3] = biological target: T2, zinc-free bovine insulin (Bos taurus, UniProt P01317); test: Inhibition of insulin fibrillation by pyridoxal phosphate, rotator at 39° C.; format: physicochemical
T2 construct: A solution of zinc-free bovine insulin was prepared in phosphate buffer
T2 sequence (P01317 25-54 limits assumed): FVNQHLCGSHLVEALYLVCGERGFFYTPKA
T2 sequence (P01317 85-105 limits assumed): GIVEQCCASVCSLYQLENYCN
Protocol: A solution of zinc-free bovine insulin was prepared in phosphate buffer (50 mM, pH 7.4, no sodium chloride) at concentration of 1.2 mg/ml. Two aliquots of 2.0 ml each were transferred into two separate glass tubes (sanitized in boiling water), and 0.10 ml of water was added to one tube, and 0.10 ml of pyridoxal phosphate (100 mg/ml, in water, pH 7.4) was added to the other. Both tubes were capped and put on a rotator (12 rotations per minute) in an oven at temperature of 39° C.
A solution of zinc-free bovine insulin was prepared in phosphate buffer (50 mM, pH 7.0, no sodium chloride) at concentration of 1.2 mg/ml. Two aliquots of 2.0 ml each were transferred into two separate glass tubes (sanitized in boiling water), and 0.10 ml of water was added to each tube. To 4.0 ml of the insulin solution was added 0.20 ml of pyridoxal phosphate (100 mg/ml, in water, pH 7.4) and the pH was adjusted to 7.0, and divided into two separate glass tubes (sanitized in boiling water). All the four tubes were capped and put on a rotator (12 rotations per minute) in an oven at temperature of 39° C.
A solution of zinc-free bovine insulin (50 mg) was dissolved in 0.50 ml of 0.1 N hydrochloric acid, and neutralized using 0.1 N sodium hydroxide until it turned cloudy and clear again. Then 0.667 ml of pyridoxal phosphate solution (167 mg/ml, pH 7.0 in water) was added to the insulin solution, and the pH was re-adjusted to 7.4 using dilute sodium hydroxide. The total volume was adjusted to 2.5 ml with HPLC grade water. Serial dilution using water provided four samples (1.0 ml each) of insulin concentrations at 2.0, 5.0, 10, 15 mg/ml. All the four samples in glass vials, together with 0.5 ml of the remaining insulin-pyridoxal phosphate solution (20 mg/ml) were capped and put on a rotator (12 rotations per minute) in an oven at temperature of 39° C.

T1 sequence (P02769 25-607): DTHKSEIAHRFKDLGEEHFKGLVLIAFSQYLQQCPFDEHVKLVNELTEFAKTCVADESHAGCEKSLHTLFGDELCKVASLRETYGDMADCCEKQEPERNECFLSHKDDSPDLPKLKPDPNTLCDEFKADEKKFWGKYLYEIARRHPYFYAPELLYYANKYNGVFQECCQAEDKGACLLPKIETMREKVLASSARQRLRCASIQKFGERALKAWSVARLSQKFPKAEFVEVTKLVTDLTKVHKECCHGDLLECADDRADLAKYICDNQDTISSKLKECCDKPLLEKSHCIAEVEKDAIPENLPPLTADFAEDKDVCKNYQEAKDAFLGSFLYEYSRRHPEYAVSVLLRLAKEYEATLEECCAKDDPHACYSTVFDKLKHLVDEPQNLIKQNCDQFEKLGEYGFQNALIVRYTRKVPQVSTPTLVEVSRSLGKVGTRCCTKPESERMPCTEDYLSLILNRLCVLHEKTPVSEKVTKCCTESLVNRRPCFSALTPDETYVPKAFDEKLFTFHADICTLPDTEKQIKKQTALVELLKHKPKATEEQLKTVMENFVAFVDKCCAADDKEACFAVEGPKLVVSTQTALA

Aggregates produced [1]: less than 50%
Fraction of BSA appearing as aggregate [2]: a quarter
Appearance of insulin solution (fibrillation) ([3]; pH 7.0, insulin 1.2 mg/ml, 0.20 ml pyridoxal phosphate 100 mg/ml in 4.0 ml): still remained clear beyond four weeks
Appearance of insulin solution (fibrillation) ([3]; pH 7.4, insulin 1.2 mg/ml, 0.10 ml pyridoxal phosphate 100 mg/ml in 2.0 ml): still remained clear after five weeks
Appearance of insulin solution (fibrillation) ([3]; pH 7.4, insulin 2.0, 5.0, 10, 15 and 20 mg/ml with pyridoxal phosphate serially diluted): still remained clear after three weeks
Structure (SMILES): Cc1ncc(COP(=O)(O)O)c(C=O)c1O [pyridoxal phosphate]
